Measured values as given in the supplement of paper PMC11451515.

Tested on: NOMO1
Assay: cell viability relative to DMSO control; higher = less cytotoxic
Conditions: 48 h
Outline: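 Viability is expressed as a percentage of DMSO wells within each plate, and cell-free wells serve as background. Seeding densities in the 1536-well plates (5 μl) were 500 cells/well for NOMO1 or SEM leukemia cells and 1000 cells/well for P12-Ichikawa. Each line was adapted for at least four passages in each medium. Library compounds in DMSO were pin-dosed at 47 μM to 0.79 nM (11 points, threefold), and CellTiter-Glo One luminescence was read after 48 h at 37°C.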

[1] = HPLM + 10% dialyzed FBS, 0.000781 µM
[2] = HPLM + 10% dialyzed FBS, 0.00234 µM
[3] = HPLM + 10% dialyzed FBS, 0.00702 µM
[4] = HPLM + 10% dialyzed FBS, 0.0211 µM
[5] = HPLM + 10% dialyzed FBS, 0.0632 µM
[6] = HPLM + 10% dialyzed FBS, 0.19 µM
[7] = HPLM + 10% dialyzed FBS, 0.569 µM
[8] = HPLM + 10% dialyzed FBS, 1.71 µM
[9] = HPLM + 10% dialyzed FBS, 5.12 µM
[10] = HPLM + 10% dialyzed FBS, 15.4 µM
[11] = HPLM + 10% dialyzed FBS, 46.1 µM
[12] = RPMI 5 mM glucose + 10% FBS, 0.000781 µM
[13] = RPMI 5 mM glucose + 10% FBS, 0.00234 µM
[14] = RPMI 5 mM glucose + 10% FBS, 0.00702 µM
[15] = RPMI 5 mM glucose + 10% FBS, 0.0211 µM
[16] = RPMI 5 mM glucose + 10% FBS, 0.0632 µM
[17] = RPMI 5 mM glucose + 10% FBS, 0.19 µM
[18] = RPMI 5 mM glucose + 10% FBS, 0.569 µM
[19] = RPMI 5 mM glucose + 10% FBS, 1.71 µM
[20] = RPMI 5 mM glucose + 10% FBS, 5.12 µM
[21] = RPMI 5 mM glucose + 10% FBS, 15.4 µM
[22] = RPMI 5 mM glucose + 10% FBS, 46.1 µM
[23] = RPMI 5 mM glucose + 10% dialyzed FBS, 0.000781 µM
[24] = RPMI 5 mM glucose + 10% dialyzed FBS, 0.00234 µM
[25] = RPMI 5 mM glucose + 10% dialyzed FBS, 0.00702 µM
[26] = RPMI 5 mM glucose + 10% dialyzed FBS, 0.0211 µM
[27] = RPMI 5 mM glucose + 10% dialyzed FBS, 0.0632 µM
[28] = RPMI 5 mM glucose + 10% dialyzed FBS, 0.19 µM
[29] = RPMI 5 mM glucose + 10% dialyzed FBS, 0.569 µM
[30] = RPMI 5 mM glucose + 10% dialyzed FBS, 1.71 µM
[31] = RPMI 5 mM glucose + 10% dialyzed FBS, 5.12 µM
[32] = RPMI 5 mM glucose + 10% dialyzed FBS, 15.4 µM
[33] = RPMI 5 mM glucose + 10% dialyzed FBS, 46.1 µM

Compound	cell viability [1]	cell viability [2]	cell viability [3]	cell viability [4]	cell viability [5]	cell viability [6]	cell viability [7]	cell viability [8]	cell viability [9]	cell viability [10]	cell viability [11]	cell viability [12]	cell viability [13]	cell viability [14]	cell viability [15]	cell viability [16]	cell viability [17]	cell viability [18]	cell viability [19]	cell viability [20]	cell viability [21]	cell viability [22]	cell viability [23]	cell viability [24]	cell viability [25]	cell viability [26]	cell viability [27]	cell viability [28]	cell viability [29]	cell viability [30]	cell viability [31]	cell viability [32]	cell viability [33]
C[S+]([O-])c1ccc(-c2nc(-c3ccc(F)cc3)c(-c3ccncc3)[nH]2)cc1 (stereo not given)	78.8%	101%	108%	106%	106%	117%	106%	66.2%	35.1%	3.41%	2.33%	80%	90.4%	105%	95%	113%	96.3%	106%	75.9%	29.7%	4.04%	2.28%	83.5%	86.2%	87.3%	98.2%	99.1%	86.5%	99.1%	64.6%	34.6%	4.16%	2.47%
COc1cc(OC)c(NC(=O)Nc2cc(C)on2)cc1Cl	97.6%	96.4%	100%	106%	106%	84.4%	119%	114%	100%	105%	96.9%	83.5%	96.7%	85.2%	92.7%	93.8%	97.9%	93.9%	91%	90.1%	88.7%	99.5%	86.8%	83.8%	81.3%	85.6%	97.3%	89.4%	98%	79.7%	83%	88.1%	88.3%
O=C1CCc2ccc(OCCCCN3CCN(c4cccc(Cl)c4Cl)CC3)cc2N1	115%	98.6%	119%	77.7%	96.1%	109%	89.2%	91.6%	106%	107%	85.1%	91.2%	91.7%	94.7%	86.6%	92.9%	89.5%	96.6%	97.2%	81.6%	93.6%	77.6%	106%	83.6%	97.7%	75.2%	96.1%	93.6%	91.5%	98.1%	91.1%	97.5%	78.7%
Cc1cc(Cl)ccc1OCCCC(=O)NO	106%	117%	107%	94.8%	110%	122%	117%	112%	103%	67%	33.5%	93.5%	112%	93.2%	112%	113%	96.9%	106%	107%	94%	52.3%	15.9%	105%	121%	101%	114%	99.5%	104%	119%	114%	117%	73.4%	31%
Cc1ccc(C(=O)c2cc(O)c(O)c([N+](=O)[O-])c2)cc1	91.5%	104%	98.2%	100%	116%	101%	115%	89.5%	80.7%	83.2%	86.4%	90.3%	86.4%	83.6%	90.6%	96%	83.7%	90.9%	81.7%	94.6%	87.3%	92.2%	100%	98%	79.4%	92.1%	99.6%	105%	108%	94.3%	81.8%	88.4%	103%
CN(C)CC/C=C1/c2ccccc2COc2ccc(CC(=O)O)cc21												112%	115%	120%	128%	153%	131%	148%	166%	153%	149%	147%											
COC1=CC2=C(C=C1OC)[C@H]3[C@@H](CO2)OC4=C(C=CC5=C4\C=C/C(C)(C)O5)C3=O	82.8%	89.3%	106%	96.8%	95%	98.5%	94%	82.8%	70.4%	69.3%	10.3%	88.8%	95.3%	93.3%	99.2%	89%	93.6%	90.8%	82.8%	78.7%	76.5%	9.87%	86.3%	88.1%	91%	95.2%	79.9%	98.1%	94.3%	88.5%	81.9%	81.4%	21.4%
CC[C@@]1(O)C[C@H](O[C@H]2C[C@H](N(C)C)[C@H](O[C@H]3C[C@H](O)[C@H](O[C@H]4CCC(=O)[C@H](C)O4)[C@H](C)O3)[C@H](C)O2)c2c(cc3c(c2O)C(=O)c2c(O)cccc2C3=O)[C@H]1C(=O)OC	109%	106%	106%	106%	122%	101%	109%	82%	67%	78.5%	71.9%	95.7%	102%	95.6%	97.6%	106%	93.8%	95.6%	64.2%	76.6%	75.8%	85%	91.5%	84.7%	94.4%	98.1%	102%	90.4%	93.9%	67.7%	71.6%	75.3%	72.1%
C[C@@H]1CC[C@@]2(OC1)OC1CC3C4CC=C5CC(O)CCC5(C)C4CCC3(C)C1[C@@H]2C (stereo not given in full)	95.6%	84.6%	105%	114%	113%	112%	116%	127%	117%	44.5%	16.5%	89.7%	87.3%	95%	95.3%	96%	90.6%	93%	98.5%	90.1%	48.5%	11.8%	90.6%	83.5%	97%	87.6%	87.4%	93.1%	91.9%	90.8%	88.3%	73.4%	29.1%
C[C@@H]1C[C@H]2[C@@H]3CC\C4=C\C(=O)\C=C/[C@]4(C)[C@@]3(Cl)[C@@H](O)C[C@]2(C)[C@@]1(OC(=O)C5=CC=CO5)C(=O)CCl	118%	109%	113%	115%	118%	99.2%	103%	107%	81.9%	71.6%	84.2%	112%	111%	101%	102%	104%	103%	108%	101%	97.1%	70.5%	84.2%	95.1%	112%	106%	113%	105%	110%	98%	109%	97.9%	65.4%	79.7%
NC\1=N\C(=O)N(\C=C1)[C@H]\2[C@H](O)[C@H](O)C(=C2F)\CO	78.5%	111%	105%	101%	110%	90.8%	94.7%	67.5%	32.1%	33.6%	11.3%	86.3%	112%	117%	106%	107%	88.2%	93%	83.5%	54.6%	12.6%	7.41%	89.1%	96.9%	104%	111%	109%	107%	111%	86.4%	27.7%	10.2%	7.62%
N#CC(=C(/N)Sc1ccccc1N)/C(C#N)=C(\N)Sc1ccccc1N	118%	119%	122%	128%	134%	140%	130%	101%	107%	90.8%	71%	115%	115%	121%	120%	120%	121%	118%	117%	114%	120%	97.8%											
CC(C)(C)NC(=O)[C@H]1CC[C@H]2[C@@H]3CC[C@H]4NC(=O)\C=C/[C@]4(C)[C@H]3CC[C@]12C	76.6%	94.6%	109%	108%	107%	99.8%	112%	84.3%	27.2%	26.8%	27.4%	101%	95.7%	102%	96.5%	96.6%	111%	109%	71%	20.9%	18.7%	14.5%	95.8%	105%	100%	107%	107%	108%	115%	102%	26.3%	25.2%	18.8%
OC1=CC=C(C=C1)\C2=C\C(=O)C3=C(O2)C=C(O)C=C3O	102%	111%	104%	107%	103%	126%	89.2%	107%	98.1%	84.1%	57.2%	108%	112%	108%	108%	105%	105%	97.9%	96%	107%	88.9%	53.6%	108%	101%	114%	104%	104%	102%	116%	99.3%	97.8%	80%	54.6%
Oc1cc(O)cc(/C=C/c2ccc(O)c(O)c2)c1	97.9%	101%	99.3%	99.4%	110%	104%	97.4%	101%	100%	56%	45.4%	89.7%	90.5%	94%	85.6%	91.9%	85.7%	97.1%	88.4%	86.9%	72.3%	70.8%	81.6%	99.6%	92.3%	88.8%	103%	98.4%	94.9%	93.5%	79.3%	84.8%	72.8%
COc1cccc2c1C(=O)c1c(O)c3c(c(O)c1C2=O)C[C@@](O)(C(C)=O)C[C@@H]3O[C@H]1C[C@H](N)[C@H](O)[C@H](C)O1	98.6%	107%	108%	114%	111%	81.5%	12.4%	7.35%	5.97%	5.19%	4.98%	99%	104%	106%	99.2%	108%	78.6%	9.07%	4.79%	4.48%	5.23%	3.6%	91.6%	113%	107%	115%	108%	73.4%	9.73%	6.25%	4.58%	4.86%	4.92%
